Source: patent publication US5891917A, “Certain acrylonitrile-sulfonamide derivatives” (Sugen, Inc., priority 1997, dated 1999)

Legend:
HER2 = biological target: T1, HER2 (Homo sapiens, UniProt P04626); assay: HER2-BT474 whole cell ELISA; format: cell-based; conditions: BT-474 cells
T1 construct: a human breast tumor cell line which expresses high levels of HER2 kinase; endogenous in cells; host or cells: BT-474 human breast tumor cells
Description: The following examples illustrate the ability of the exemplary compounds to inhibit receptor tyrosine kinases, such as HER2 and/or EGFR. The following target cells were used for cellular kinase assays: NIH3T3 clone C7 (Honegger et al., supra) engineered to over-express human EGF receptor; NIH3T3 cells engineered to over-express a chimeric receptor containing the EGFR extracellular domain and the HER2 intracellular kinase domain; the human mammary carcinoma line BT474 (ATCC HTB2) expressing HER2; and the human glioblastoma line U1242 that expresses PDGFR-beta. Growth assays were carried out using human mammary epithelial SKBR3 (ATCC HTB30) cells (SKBR3 cells over-express HER2), SKOV3 (ATCC HTB77) human ovarian cancer cell line (SKOV3 cells also over-express HER2), A431 cells (A431 cells over-express EGFR) MCF7 human breast carcinoma cells, MCF7 cells overexpressing the HER2 kinase (MCF7-HER2), NIH3T3 cells, and NIH3T3 cells overexpressing the HER2 kinase (3T3-HER2.
HER2-BT474 assays measuring whole cell HER2 activity was carried out as described below:
1. The cell line used in this assay is BT-474 (ATCC HBT20), a human breast tumor cell line which expresses high levels of HER2 kinase.
2. BT-474 is grown in an incubator with 5% CO2 at 37° C. The growth media is RPMI+10% FBS+GMS-G (Gibco supplement)+Glutamine.
(a) Grow BT474 cells in tissue culture dishes (10 cm, Corning 25020-100) to 80-90% confluence and collect using Trypsin-EDTA (0.25%, GIBCO).
(b) Resuspend the cells in fresh medium and transfer to 96-well tissue culture plates (Corning, 25806-96) at about 25,000-50,000 cells/well (100 μl/well). Incubate the cells in 5% CO2 at 37° C. overnight.
(a) Coat the ELISA plate (Corning 25805-96) with anti HER2 antibody at 0.5 μg/well in 150 μl PBS overnight at 4° C., and seal with parafilm. The antibody coated plates can be used up to 2 weeks, when stored at 4° C.
(b) On the day of use, remove the coating solution, replace with 200 μl of Blocking Buffer, shake the plate, and then remove the blocking buffer and wash the plate just before adding lysate.
(a) […] the drugs in serum-free condition. Before adding drugs, the old media is replaced with serum-free RPMI (90 μl/well)
(b) Dilute drug stock (in 100% DMSO) 1:10 with RPMI, and transfer 10 μl/well of this solution to the cells to achieve a final drug DMSO concentration at 1%. Incubate the cells in 5% CO2 at 37° C.
(c) Prepare fresh cell lysis buffer (HNTG*)
(d) After drug preincubation for two hours remove all the solution from the plate, transfer HNTG* 100 μl/well to the cells, and shake for 10 minutes.
(e) Use a 12-channel pipette to scrape the cells from the plate, and homogenize the lysate by repeat aspiration and dispensing. Transfer all the lysate to the ELISA plate and shake for 1 hour.
(f) Remove the lysate, wash the plate, add anti-pTyr (1:3,000 with TBST) 100 μl/well, and shake for 30 minutes.
(g) Remove anti-pTyr, wash the plate, add goat anti-rabbit IgG conjugated antibody (1:5,000 with TBST) 100 μl/well, and shake for 30 minutes.
(h) Remove anti-rabbit IgG antibody, wash the plate, and add fresh ABTS/H2 O2 (1.2 μl 30% H2 O2 to 10 ml ABTS) 100 μ/well to the plate to start color development, which usually takes 20 minutes.
(I) Measure OD 410 nm, Dynatec MR5000.

IGF-1R = biological target: T2, IGF-1R (Homo sapiens, UniProt P08069); assay: Cellular IGF-1 Receptor ELISA; format: cell-based; conditions: 3T3/IGF-1R cells, 20 nM IGF-1
T2 construct: expressed in transfected cells; host or cells: 3T3/IGF-1R (mouse NIH 3T3 line overexpressing IGF-1R)
T2 sequence (P08069 741-1367 limits assumed): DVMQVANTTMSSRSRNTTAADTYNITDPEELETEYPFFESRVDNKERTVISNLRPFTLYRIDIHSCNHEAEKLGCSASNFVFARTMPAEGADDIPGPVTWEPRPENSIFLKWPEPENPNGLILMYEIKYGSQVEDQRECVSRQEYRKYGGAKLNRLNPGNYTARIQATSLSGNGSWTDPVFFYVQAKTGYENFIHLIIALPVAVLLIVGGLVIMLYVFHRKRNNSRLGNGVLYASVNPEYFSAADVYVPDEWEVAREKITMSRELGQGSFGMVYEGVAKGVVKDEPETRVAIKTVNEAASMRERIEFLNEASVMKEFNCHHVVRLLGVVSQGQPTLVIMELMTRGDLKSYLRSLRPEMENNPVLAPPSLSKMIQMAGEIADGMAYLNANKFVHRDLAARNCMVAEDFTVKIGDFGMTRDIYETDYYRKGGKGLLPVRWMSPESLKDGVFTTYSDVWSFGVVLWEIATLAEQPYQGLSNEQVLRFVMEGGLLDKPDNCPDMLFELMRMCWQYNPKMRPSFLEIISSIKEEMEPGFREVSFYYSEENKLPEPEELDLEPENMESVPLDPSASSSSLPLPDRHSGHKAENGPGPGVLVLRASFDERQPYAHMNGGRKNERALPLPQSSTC
T2 sequence (P08069 31-736 partner limits assumed): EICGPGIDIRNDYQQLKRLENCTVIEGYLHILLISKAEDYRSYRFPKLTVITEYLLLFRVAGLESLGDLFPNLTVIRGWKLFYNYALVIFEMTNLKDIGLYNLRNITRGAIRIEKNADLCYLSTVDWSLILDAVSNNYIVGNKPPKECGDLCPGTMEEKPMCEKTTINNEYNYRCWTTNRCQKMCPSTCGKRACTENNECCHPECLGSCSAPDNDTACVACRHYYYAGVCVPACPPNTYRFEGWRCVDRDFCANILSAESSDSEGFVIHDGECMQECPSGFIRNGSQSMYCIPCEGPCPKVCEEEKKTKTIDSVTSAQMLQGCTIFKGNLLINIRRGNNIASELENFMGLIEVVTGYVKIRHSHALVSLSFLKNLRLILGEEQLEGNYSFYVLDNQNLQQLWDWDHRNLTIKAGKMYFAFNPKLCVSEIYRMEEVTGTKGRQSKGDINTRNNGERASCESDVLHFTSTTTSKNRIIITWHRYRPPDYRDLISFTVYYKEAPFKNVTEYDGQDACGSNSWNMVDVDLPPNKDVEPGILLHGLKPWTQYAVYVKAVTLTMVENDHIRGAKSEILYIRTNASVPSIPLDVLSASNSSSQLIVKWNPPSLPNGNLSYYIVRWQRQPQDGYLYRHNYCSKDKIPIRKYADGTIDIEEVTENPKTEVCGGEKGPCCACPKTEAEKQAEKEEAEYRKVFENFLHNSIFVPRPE
Procedure: Cellular IGF-1 Receptor ELISA (Version I)
(1). The cell line used in this assay is 3T3/IGF-1R, a cell line which overexpresses IGF-1 Receptor.
(2). 3T3/IGF-1R is grown in an incubator with 5% CO2 at 37° C. The growth media is DMEM+10% FBS (heat inactivated)+2mM L-Glutamine.
(3). For ELISA plate coating, the anti-IGF-1R antibody named 17-69 is used. Antibodies are purified by the Enzymology Lab, SUGEN, Inc.
(10). Insulin-like growth factor-1 from Promega (Cat# G5111).
(11). Polyclonal antiserum Anti-phosphotyrosine:
(1). The cells, grown in tissue culture dish (10 cm, Corning 25020-100) to 80-90% confluence, are harvested with Trypsin-EDTA (0.25%, 0.5 ml/D-100, GIBCO).
(2). Resuspend the cells in fresh DMEM +10% FBS+2 mM L-Glutamine, and transfer to 96-well tissue culture plate (Corning, 25806-96) at 20,000 cells/well (100 ul/well). Incubate for 1 day then replace medium to serum-free medium (90/ul) and incubate in 5% CO2 and 37° C. overnight.
(1). Coat the ELISA plate (Corning 25805-96) with Anti-IGF-1R Antibody at 0.5 ug/well in 100 ul PBS at least 2 hours. (2). Remove the coating solution, and replace with 100 ul Blocking Buffer, and shake for 30 minutes. Remove the blocking buffer and wash the plate just before adding lysate.
(1). The drugs are tested in serum-free condition.
(2). Dilute drug stock (in 100% DMSO) 1:10 with DMEM in 96-well poly-propylene plate, and transfer 10 ul/well of this solution to the cells to achieve final drug dilution 1:100, and final DMSO concentration of 1.0%. Incubate the cells in 5% CO2 at 37° C. for 2 hours.
(3). Prepare fresh cell lysis buffer (HNTG HNTG 2 ml EDTA 0.1 ml Na3VO4 0.1 ml Na4P2O7 0.1 ml H20 7.3 ml HNTG* 10 ml.
(4). After drug incubation for two hours, transfer 10 ul/well of 200nM IGF-1 Ligand in PBS to the cells (Final Conc=20 nM), and incubate at 5% CO2 at 37° C. for 10 minutes.
(5). Remove media and add 100 ul/well HNTG* and shake for 10 minutes. Look at cells under microscope to see if they are adequately lysed.
(6). Use a 12-channel pipette to scrape the cells from the plate, and homogenize the lysate by repeat aspiration and dispense. Transfer all the lysate to the antibody coated ELISA plate [V.2.(2)], and shake for 1 hour.
(7). Remove the lysate, wash the plate, transfer anti-pTyr (1:3,000 with TBST) 100 ul/well, and shake for 30 minutes.
(7). Remove anti-pTyr, wash the plate, transfer detection antibody (1:3,000 with TBST) 100 ul/well, and shake for 30 minutes.
(8). Remove detection antibody, wash the plate, and transfer fresh ABTS/H2O2 (1.2 ul H2O2 to 10 ml ABTS) 100 ul/well to the plate to start color development.
(9). Measure OD (410 nm) in Dynatec MR5000, which is connected to Ingres.

T1 sequence (P04626 23-1255): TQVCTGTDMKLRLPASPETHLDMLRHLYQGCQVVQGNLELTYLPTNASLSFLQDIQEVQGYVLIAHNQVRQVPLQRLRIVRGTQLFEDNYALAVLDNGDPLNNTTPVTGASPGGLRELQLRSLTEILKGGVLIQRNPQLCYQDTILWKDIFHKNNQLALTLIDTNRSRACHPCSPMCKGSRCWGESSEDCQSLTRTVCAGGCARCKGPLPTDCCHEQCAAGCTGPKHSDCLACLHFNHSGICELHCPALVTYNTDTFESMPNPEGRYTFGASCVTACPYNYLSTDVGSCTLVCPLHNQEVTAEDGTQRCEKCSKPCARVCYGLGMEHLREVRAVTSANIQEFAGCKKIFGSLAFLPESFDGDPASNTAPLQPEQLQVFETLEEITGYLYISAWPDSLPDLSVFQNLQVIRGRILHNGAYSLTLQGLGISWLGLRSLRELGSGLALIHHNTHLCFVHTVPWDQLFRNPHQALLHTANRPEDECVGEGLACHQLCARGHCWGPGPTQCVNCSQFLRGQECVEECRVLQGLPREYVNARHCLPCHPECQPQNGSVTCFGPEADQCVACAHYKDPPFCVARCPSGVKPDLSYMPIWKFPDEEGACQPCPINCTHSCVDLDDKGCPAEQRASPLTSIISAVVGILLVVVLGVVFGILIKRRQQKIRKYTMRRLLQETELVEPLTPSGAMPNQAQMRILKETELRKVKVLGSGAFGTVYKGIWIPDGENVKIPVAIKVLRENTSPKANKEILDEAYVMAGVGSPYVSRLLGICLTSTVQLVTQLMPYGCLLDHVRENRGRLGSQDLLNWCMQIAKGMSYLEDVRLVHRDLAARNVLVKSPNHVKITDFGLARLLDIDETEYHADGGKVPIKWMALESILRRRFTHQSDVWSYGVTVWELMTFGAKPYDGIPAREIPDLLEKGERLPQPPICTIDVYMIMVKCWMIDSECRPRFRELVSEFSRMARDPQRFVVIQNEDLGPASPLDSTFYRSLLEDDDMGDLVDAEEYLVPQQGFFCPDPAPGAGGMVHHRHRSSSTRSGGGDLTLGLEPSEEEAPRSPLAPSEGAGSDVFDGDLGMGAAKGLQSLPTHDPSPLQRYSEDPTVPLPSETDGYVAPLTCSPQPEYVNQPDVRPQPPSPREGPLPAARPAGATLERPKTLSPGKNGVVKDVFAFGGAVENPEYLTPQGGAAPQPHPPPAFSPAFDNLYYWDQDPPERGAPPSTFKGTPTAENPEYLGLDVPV

| Structure (SMILES) | IC50 (HER2) [µM] | IC50 (IGF-1R) [µM] |
| --- | --- | --- |
| CC(C)c1cc(/C=C(\C#N)S(=O)(=O)c2ccccc2)cc(C(C)C)c1O [Compound 731] | 0.3 | 29.2 |
| CC(C)c1cc(/C=C(\C#N)S(=O)(=O)NCc2ccccc2)cc(C(C)C)c1O [Compound 732] | 1.9 | 11.8 |
| N#C/C(=C\c1ccc(O)cc1Cl)S(=O)(=O)NCc1ccccc1 [Compound 733] | 5.8 | > 100 |
| N#C/C(=C\c1ccc(O)cc1Cl)S(=O)(=O)NCCCc1ccccc1 [Compound 734] | 1.8 | 93.9 |
| CC(C)(C)c1cc(/C=C(\C#N)S(=O)(=O)Cc2cccc(C(F)(F)F)c2)cc(C(C)(C)C)c1O [Compound 735] | 0.3 | > 100 |
| CC(C)c1cc(/C=C(\C#N)S(=O)(=O)Cc2cccc(C(F)(F)F)c2)cc(C(C)C)c1O [Compound 736] | 0.8 | 19 |
| CC(C)c1cc(/C=C(\C#N)S(=O)(=O)c2cccs2)cc(C(C)C)c1O [Compound 737] | 1 | 93.5 |
| CC(C)c1cc(/C=C(\C#N)S(=O)(=O)c2ccsc2)cc(C(C)C)c1O [Compound 738] | 1.3 | > 100 |
| Cc1cc(/C=C(\C#N)S(=O)(=O)Cc2cccc(C(F)(F)F)c2)cc(C)c1O [Compound 739] | 4.1 | > 100 |
| CC(C)(C)c1cc(/C=C(\C#N)S(=O)(=O)c2ccc(F)cc2)cc(C(C)(C)C)c1O [Compound 740] | 0.4 | > 100 |
| CC(C)c1cc(/C=C(\C#N)S(=O)(=O)c2ccc(F)cc2)cc(C(C)C)c1O [Compound 741, (E)-3-(3,5-Diisopropyl-4-hydroxyphenyl)-2-(4-fluorophenylsulfonyl)acrylonitrile] | – | 28.3 |
| CC(C)(C)c1cc(/C=C(\C#N)S(=O)(=O)c2cccs2)cc(C(C)(C)C)c1O [Compound 742] | 0.2 | > 100 |
| N#C/C(=C\c1ccc(O)c(O)c1)S(=O)(=O)c1cccs1 [Compound 743, (E)-3-(3,4-Dihydroxyphenyl)-2-[(thien-2-yl)sulfonyl]acrylonitrile] | 12.6 | > 100 |
| Cc1cc(/C=C(\C#N)S(=O)(=O)c2ccc(F)cc2)cc(C)c1O [Compound 744] | 4.5 | > 100 |
| CC(C)c1cc(/C=C(\C#N)S(=O)(=O)/C(C#N)=C/c2cc(C(C)C)c(O)c(C(C)C)c2)cc(C(C)C)c1O [Compound 745] | > 50 | 69 |
| CC(C)(C)c1cc(/C=C(\C#N)S(=O)(=O)c2ccsc2)cc(C(C)(C)C)c1O [Compound 746] | 0.3 | > 100 |
| CC(C)c1cc(/C=C(\C#N)S(=O)(=O)c2ccccn2)cc(C(C)C)c1O [Compound 747] | – | > 100 |
| Cc1cc(/C=C(\C#N)S(=O)(=O)c2ccccc2)cc(C)c1O [Compound 748] | – | > 100 |
